Patent US20230136301A1, “Corticosteriod Reduction in Treatment with Anti-CD38 Antibody” (Janssen Biotech, Inc., priority 2021, published 2023)
Where “and” joins values, the source holds several entries; their conditions need not be identical. Identical values can stand only once.

Legend:
patients with RRMM [1] = assay: PAVO Part 2: DARA SC safety and efficacy
patients with RRMM [2] = assay: PAVO Part 3: efficacy by IMWG response criteria; format: in vivo, human
Protocol: The primary endpoint was safety of pre- and post-dose steroid tapering. Key secondary endpoints included the overall response rate (ORR) and the rate of complete response (CR).
For the evaluation of efficacy, responses were assessed according to International Myeloma Working Group (IMWG) consensus recommendations (Durie et al., Leukemia 20(9):1467-73 (2006); Rajkumar et al., Blood 117(18):4691-95 (2011)). Disease evaluations were performed by a central laboratory.
In PAVO Part 3, no formal statistical hypothesis testing was performed. Data were summarized descriptively. Continuous variables were summarized using the number of observations, mean and standard deviation (SD), coefficient of variation, median and range as appropriate. Categorical variables were summarized using the number of observations and percentages as appropriate. Duration of response and PFS were estimated using Kaplan-Meier methods.

[3] = PAVO Part 3: serum daratumumab concentration, pre-dose Cycle 3 Day 1; format: in vivo, human; settings: Cycle 3 Day 1 pre-dose
patients with RRMM [4] = assay: PAVO Part 3: infusion-related reactions (IRRs)
Protocol: Safety was assessed, with an emphasis on IRRs, while corticosteroids were reduced and discontinued.
The purpose of Part 3 was to evaluate the safety of daratumumab 1,800 mg SC delivery without predose and postdose corticosteroids after a 3-week, 2-week, and 1-week tapering schedule to assess the safety of corticosteroid-free SC daratumumab administration. […] In conjunction, patients also received a 3-week, 2-week, or 1-week steroid tapering schedule (FIG. 2). The 3-week tapering schedule (corticosteroid-free by Cycle 1 Day 22) consisted of methylprednisolone (MP) given orally (PO)/IV pre-dose (Cycle 1 Day 1, 100 mg; Cycle 1 Day 8, 60 mg; Cycle 1 Day 15, 30 mg) and PO post-dose (Cycle 1 Day 1, 20 mg for 2 days; Cycle 1 Day 8, 20 mg for 1 day; Cycle 1 Day 15, 20 mg for 1 day). The 2-week tapering schedule (corticosteroid-free by Cycle 1 Day 15) consisted of MP given PO/IV pre-dose (Cycle 1 Day 1, 100 mg; Cycle 1 Day 8, 60 mg) and PO post-dose (Cycle 1 Day 1, 20 mg for 2 days; Cycle 1 Day 8, 20 mg for 1 day). The 1-week tapering schedule (corticosteroid-free by Cycle 1 Day 8) consisted of dexamethasone 20 mg administered IV pre-dose on Cycle 1 Day 1, without post-dose administration.
The 3-week, 2-week and 1-week steroid tapering schedules were assessed by “3+3” design, followed by cohort expansion to approximately 15 patients (3-week and 2-week tapering cohorts) or 12 patients (1-week tapering cohort). The dose-limiting toxicity (DLT) assessment period in the 3-week, 2-week and 1-week tapering cohorts were Cycle 1 Day 1 through Cycle 2 Day 4, Cycle 1 Day 1 through Cycle 1 Day 25, and Cycle 1 Day 1 through Cycle 1 Day 11, respectively. […] Grade 3 or 4 IRRs only qualified as DLTs if they occurred during corticosteroid reduction or discontinuation (not during Cycle 1 Day 1). For the 3-week and 2-week groups, IRRs reported at Cycle 1 Day 1 were not considered DLTs, as corticosteroids had not yet been reduced or discontinued. Up to approximately 12 patients could be enrolled in the 1-week tapering schedule to assess safety, including IRRs.
Safety assessments included treatment-emergent adverse events (TEAEs), serious adverse events, and IRRs. All toxicities were graded according to the National Cancer Institute's Common Terminology for the Classification of Adverse Events (NCI-CTCAE) Version 4.03 (National Cancer Institute. Common Terminology Criteria for Adverse Events (CTCAE): Version 4.03.).

[5] = tested on: patients with multiple myeloma; settings: cited from earlier work

Question: Which results are given for “DARA SC: 1,800 mg daratumumab co-formulated with 30,000 U rHuPH20 (2,000 U/mL, 15 mL), manual subcutaneous injection”?
Answer: Lymphopenia, TEAE of Grade >3 (patients with RRMM [1]): 20.0%; Serious TEAEs in SOC General disorders and administration site conditions (patients with RRMM [1]): 8.0%; TEAEs in SOC General disorders and administration site conditions (patients with RRMM [1]): 72.0%; 9-month duration of response rate (patients with RRMM [2]; 1-week taper): 100%; Estimated 9-month PFS rate (patients with RRMM [2]; 1-week taper): 46.7%; Median PFS (patients with RRMM [2]; 1-week taper): 7.4 months; Median duration of response (patients with RRMM [2]; 1-week taper): not reached; Median time to best response (patients with RRMM [2]; 1-week taper): 1.0 months; Patients achieving ≥CR (patients with RRMM [2]; 1-week taper): 1 (8.3%) n (%); Patients achieving ≥VGPR (patients with RRMM [2]; 1-week taper): 2 (16.7%) n (%); Rate of very good partial response or better (patients with RRMM [2]; 1-week taper): 16.7%; Overall response rate (ORR) (patients with RRMM [2]; 1-week taper, median follow-up 8.3 months): 41.7%; 9-month duration of response rate (patients with RRMM [2]; 2-week taper): 83.3%; Estimated 9-month PFS rate (patients with RRMM [2]; 2-week taper): 36.1%; Median PFS (patients with RRMM [2]; 2-week taper): 4.7 months; Median duration of response (patients with RRMM [2]; 2-week taper): 16.7 months; Median time to best response (patients with RRMM [2]; 2-week taper): 1.9 months; Patients achieving ≥CR (patients with RRMM [2]; 2-week taper): no patient; Patients achieving ≥VGPR (patients with RRMM [2]; 2-week taper): 5 (33.3%) n (%); Rate of very good partial response or better (patients with RRMM [2]; 2-week taper): 33.3%; Overall response rate (ORR) (patients with RRMM [2]; 2-week taper, median follow-up 11.1 months): 40.0%; 9-month duration of response rate (patients with RRMM [2]; 3-week taper): 83.3%; Estimated 9-month PFS rate (patients with RRMM [2]; 3-week taper): 40.0%; Median PFS (patients with RRMM [2]; 3-week taper): 5.9 months; Median duration of response (patients with RRMM [2]; 3-week taper): not reached; Median time to best response (patients with RRMM [2]; 3-week taper): 1.5 months; Patients achieving ≥CR (patients with RRMM [2]; 3-week taper): 1 (6.7%) n (%); Patients achieving ≥VGPR (patients with RRMM [2]; 3-week taper): 3 (20.0%) n (%); Rate of very good partial response or better (patients with RRMM [2]; 3-week taper): 20.0%; Overall response rate (ORR) (patients with RRMM [2]; 3-week taper, median follow-up 9.2 months): 40.0%; Patients achieving ≥CR (patients with RRMM [2]; Total n=42): 2 (4.8% (95% CI: 0.6%, 16.2%)) n (%); Patients achieving ≥VGPR (patients with RRMM [2]; Total n=42): 10 (23.8% (95% CI: 12.1%, 39.5%)) n (%); Overall response rate (ORR) (patients with RRMM [2]; Total n=42, median follow-up 8.3 months): 40.5%; Estimated 9-month PFS rate (patients with RRMM [2]; all treated N=42): 40.7%; Median PFS (patients with RRMM [2]; all treated N=42): 5.9 months; Median time to best response (patients with RRMM [2]; responders n=17): 1.1 months; Median time to first response (patients with RRMM [2]; responders n=17): 1.0 months; Mean (SD) daratumumab serum concentration ([3]; 1-week taper): 706 (270) μg/mL and 706 μg/mL; Mean (SD) daratumumab serum concentration ([3]; 2-week taper): 731 (382) μg/mL and 731 μg/mL; Mean (SD) daratumumab serum concentration ([3]; 3-week taper): 604 (280) μg/mL and 604 μg/mL; Mean (SD) daratumumab serum concentration ([3]; total PK-evaluable n=37): 676 (314) μg/mL; Patients with an IRR (patients with RRMM [4]; 1-week taper): 2 (16.7%) n (%); Patients with an IRR (patients with RRMM [4]; 2-week taper): 3 (20.0%) n (%); Patients with an IRR (patients with RRMM [4]; 3-week taper): 0 (0%) n (%); Grade 4 IRRs (patients with RRMM [4]; Total n=42): no grade 4 IRRs reported; IRR of increased blood pressure (patients with RRMM [4]; Total n=42): 1 (2.4%) n (%); IRR of oropharyngeal pain (patients with RRMM [4]; Total n=42): 1 (2.4%) n (%); IRR of tachycardia (patients with RRMM [4]; Total n=42): 1 (2.4%) n (%); IRRs meeting the definition of a DLT (patients with RRMM [4]; Total n=42): None of the IRRs met the definition of a DLT; Patients with an IRR (patients with RRMM [4]; Total n=42): 5 (11.9%) n (%); Number of grade 3 IRRs (patients with RRMM [4]; increased blood pressure, 2-week taper, resolved on day of onset): 1; Median PFS ([5]; COLUMBA primary analysis): 5.6 months; Median duration of response ([5]; COLUMBA, follow-up 7.5 months): not reached; Overall response rate ([5]; COLUMBA, median follow-up 7.5 months): 41%
